Experiment [1] relates to HL-60 cells (human acute myeloid leukemia cells). The experiment is described as follows: alamarBlue proliferation assay with HL-60 cells. Type of experiment: cell-based. Particulars: 120 h, 5 days, relative to DMSO baseline level of 1.0, read-out: AVEw, weighted arithmetic mean of normalized fluorescence intensity values (Activity Range), HL-60 proliferation. The protocol:
The antiproliferative activities of compounds falling under formula I, formula II, formula III, formula IV and formula V were investigated on cells or cell lines originating from a disorder of the myeloid cell compartment, the neuroendocrine system, the cervix, and the mucosal epithelium, as well as from the skin epithelium. To this end, HL-60 cells, TT cells, HeLa cells, CAL-27 cells and human primary epidermal keratinocytes (HPEK) were seeded into 96-well plates suitable for fluorescence assays (CORNING #3598) at following initial cell numbers: 1000 cells per well for HL-60; 9000 cells per well for TT; 2000 cells per well for HeLa, 2000 cells per well for CAL-27, 2000 cells per well for HPEK. The cells were treated with compounds at indicated final concentrations (diluted from the 1000× stock-solutions in DMSO to a final DMSO concentration of 0.1% v/v) or with the empty carrier DMSO at 0.1% v/v as control for 5 days. At day 5 after starting the treatments the cells were subjected to the alamarBlue® Proliferation Assay (Bio-Rad Serotec GmbH, BUF012B) according to the protocol of the manufacturer. The readout was taken with a multi-well plate-reader in the fluorescence mode with applying a filter for excitation at 560 nm (band width 10 nm) and for emission at 590 nm (band width 10 nm). Resveratrol (RES) treatment was included as control for growth inhibition.
The assays were performed in duplicate or more replicates of independent single experiments each containing a six-fold replicate for every condition. For every individual plate, the measured fluorescence intensity values of the conditions with compound treatment were normalized against the corresponding equally weighted arithmetic mean of the fluorescence intensity values of the six DMSO treated control wells in order to obtain the relative values to a baseline level of 1.0. The statistical calculations were performed in analogy to the luciferase assay as described above. To this end, two independent outlier analyses were performed according to the methods by Peirce and Chauvenet (Ross, Journal of Engineering Technology 2003, 1-12). Outliers confirmed by at least one of the methods were excluded from the calculations but not more than one value out of six per compound within a single experiment. The weighted arithmetic mean AVEw for each compound was calculated from the normalized values over all independent replicates of the single experiments comprising the six replicates each. The corresponding standard deviation for the weighted arithmetic mean was calculated according to the method described by Bronstein et al. (Bronstein, Semendjajew, Musiol, Mühlig, Taschenbuch der Mathematik, 5th edition 2001 (German), publisher: Verlag Harri Deutsch, Frankfurt am Main and Thun) and was combined with the Gauß′ error propagation associated with the performed calculation for the normalization. The resulting standard deviation is herein referred to as “combined standard deviation”.
HL-60 cells were cultivated according to the protocol of the provider in RPMI 1640 medium (Fisherscientific, #11554526) containing 10% fetal bovine serum (Fisherscientific, #15517589).
A compound is considered as a growth inhibitor of HL-60 cells, if—at a reference concentration of 20 μM—the weighted arithmetic mean of the normalized fluorescence intensity values after addition of the corresponding combined standard deviation amounts to 0.9 or lower, in particular to 0.8 or lower, 0.7 or lower, 0.6 or lower, 0.4 or lower, and 0.2 or lower, relative to the overall basis level of 1.0. The overall basis level was calculated as the weighted arithmetic mean of all normalized values from the DMSO control measurements in analogy to the calculations performed for the test-compounds. The corresponding combined standard deviation for the DMSO values amounts to less than 1·10^−2.
(The colour change of resazurin is a common sign of viable cells or microbes.)

The subject of experiment [2] is Notch signaling (hNotch1ΔE, human Notch1 receptor) in HeLa cells. The experiment in a line: Notch reporter assay (luciferase luminescence readout in transfected HeLa cells). The following applies: Homo sapiens, 20 hours, relative to DMSO baseline level of 1.0, read-out: AVEw, weighted arithmetic mean of double-normalized Notch-reporter luciferase luminescence values (Activity Range). Format: cell-based. The protocol: An according Notch-reporter assay, i.e. a luciferase-based luminescence readout, was used here to quantify the ability of the claimed small molecules to augment Notch signaling in a cellular system. For this purpose, HeLa cells, obtainable from the American Type Culture Collection (ATCC) under the accession number ATCC-CCL-2, were transiently transfected for 24 hours using FuGENE® HD (Promega, #E2311) as transfection reagent with expression vectors of a membrane-tethered form of the constitutively active intracellular domain of the human Notch1 receptor (hNotch1ΔE) to activate the signaling cascade (BPS Bioscience, human analogue to Notch Pathway Reporter Kit #60509 component C), a Firefly luciferase being expressed under the control of a Notch-responsive promoter to monitor Notch signaling (BPS Bioscience, Notch Pathway Reporter Kit #60509, CSL luciferase reporter vector from component A not premixed with Renilla luciferase vector), and a Renilla luciferase being constitutively expressed in a Notch signaling independent manner to include a measure for the cell number per sample (Promega, pRL-SV40, #E2231). HeLa cells were cultivated according to the protocol of the provider in DMEM medium (Fisherscientific, #11584456) containing 10% fetal bovine serum (Fisherscientific, #15517589). The transfection was carried out in a 100 mm-culture dish (StarLab, #CC7682-3394) with cells being properly attached to the plate at a cell confluency of 80-90% in a total volume of 7 mL culture medium. Per dish to be transfected, a transfection mix was prepared by adding to 238 μL Opti-MEM (Fisherscientific, #10149832) 40 μL of the hNotch1ΔE expression vector (100 ng/μL), 80 μL of the CSL luciferase reporter vector (40 ng/μL), 4 μL of the pRL-SV40-Renilla luciferase vector (10 ng/μL), and in the last step 18.1 μL of FuGENE® HD. After addition of FuGENE® HD the transfection mix was let stand for 15 min at room temperature and hereafter equally distributed into the culture dish. Subsequently, i.e. after 24 hours of transfection, the transfected cells (10.000 cells per well) were incubated with the test-compounds at a final concentration of 10 μM (diluted from 10 mM stock-solutions in DMSO to a final DMSO concentration of 0.1% v/v) or with the empty carrier DMSO at 0.1% v/v as control for 20 hours in 96-well plates suitable for luminescence readouts (CORNING, #3610). Hereafter, the cells were lysed with 30 μL per well of Passive Lysis Buffer (Promega, #E194A, component of Dual-Luciferase® Reporter Assay System, #E1910) and the Firefly as well as Renilla luciferase values were measured with a luminescence reader with applying 15 μL per well each of the corresponding enzyme substrates needed to create the luminescence signals (Promega, Dual-Luciferase® Reporter Assay System, #E1910).
The suitability of the assays for monitoring Notch signaling was controlled by additionally including a generally accepted commercial Notch inhibitor, i.e. DAPT, as negative control, as well as the reported Notch enhancer resveratrol (RES) as positive control (Pinchot et al., Cancer 2011, 117, 1386-1398; Truong et al., Ann. Surg. Oncol. 2011, 18, 1506-1511; Yu et al., Mol. Cancer Ther. 2013, 12, 1276-1287). Both control compounds were likewise tested at 10 μM.
Per single experiment the measurement was performed in six replicates per compound. For every compound, this experiment was repeated in three or more independent replicates. The values of the Notch-reporter luciferase were normalized by division through the corresponding individual Notch-independent Renilla values in order to eliminate the impact of variation in the absolute cell-numbers in between the samples. For every individual plate, a second normalization was performed against the equally weighted arithmetic mean (here abbreviated as AVE) of the six associated Renilla-normalized DMSO-control values within a single experiment in order to obtain the relative values to a baseline level of 1.0. […]
(Reporter assays use an easily measured gene product as a stand-in for the process of interest.)

SMILES strings stand for the structures.

In the case of `COC(=O)c1ccc(Oc2ccc(C3CC4CCC3CC4)cc2)cc1` (racemic) [Compound 044, (±)-Methyl 4-(4-(bicyclo[2.2.2]octan-2-yl)phenoxy)benzoate], the activity at 20 µM in experiment [1] lay within 40 to 60%. Moreover, in experiment [2], the fold induction at 10 µM was 1.3 to 1.4.
For the molecule `CCOC(=O)c1ccc(Oc2ccc(C3CC4CCC3C4)cc2)cc1` (racemic) [Compound 066, ethyl 4-(4-((1S,4R)-bicyclo[2.2.1]heptan-2yl)phenoxy)benzoate], the activity at 20 µM in experiment [1] lay in the range of 40 to 60%. The fold induction at 10 µM in experiment [2] lay within 1.3 to 1.4.
For `CCOC(=O)c1ccc(Oc2ccc(C3CC4CCC3CC4)cc2)cc1` (racemic) [Compound 067, ethyl 4-(4-((1s,4s)-bicyclo[2.2.2]octan-2-yl)phenoxy)benzoate] the same measures were 60 to 70% and 1.4 to 1.7.
Regarding `CCOC(=O)c1ccc(Oc2ccc(C3CC4CCC3C4)cc2)nc1` (racemic) [Compound 133, ethyl 6-(4-((1S,4R)-bicyclo[2.2.1]heptan-2-yl)phenoxy)nicotinate], in experiment [1], the activity at 20 µM is 40 to 60%. Also, the fold induction at 10 µM in experiment [2] was 1.2 to 1.3.
As to `CCOC(=O)c1ccc(Oc2ccc(C3CC4CCC3CC4)cc2)nc1` (racemic) [Compound 134, ethyl 6-(4-((1s,4s)-bicyclo[2.2.2]octan-2-yl)phenoxy)nicotinate], the activity at 20 µM in experiment [1] was in the range of 70 to 80%. Moreover, the fold induction at 10 µM in experiment [2] is 1.4 to 1.7.
For the molecule `CCC(C)(C)c1ccc(Oc2ccc(C(=O)OC)cc2)cc1` [Compound 030, Methyl 4-(4-(tert-Pentyl)phenoxy)benzoate], the activity at 20 µM in experiment [1] lay in the range of 80 to 90%. Also, the fold induction at 10 µM in experiment [2] is not below 2.
Take `COC(=O)c1ccc(Oc2ccc(C3CCCCC3)cc2)cc1` [Compound 041, methyl 4-(4-(cyclohexyl)phenoxy)benzoate]: the activity at 20 µM in experiment [1] lay within 70 to 80%. In addition, the fold induction at 10 µM in experiment [2] was in the range of 1.4 to 1.7.
The like results for `COC(=O)c1ccc(Oc2ccc(C3C[C@@H]4CC[C@H]3C4)cc2)cc1` (stereo partly drawn) [Compound 043, methyl 4-(4-((1S,4R)-bicyclo[2.2.1]heptan-2-yl)phenoxy)benzoate] were, in that order, 40 to 60% and 1.7 to 2.
The like results for `COC(=O)c1ccc(Oc2ccc(C34CC5CC(CC(C5)C3)C4)cc2)cc1` [Compound 045, methyl 4-(4-((3r,5r,7r)-adamantan-1-yl)phenoxy)benzoate] were, in that order, 40 to 60% and 1.7 to 2.
The like results for `CCCCc1ccc(Oc2ccc(C(=O)O)cn2)cc1` [Compound 072, 6-(4-butylphenoxy)nicotinic acid] were, in that order, 80 to 90% and 1.4 to 1.7.
Regarding `CCCCCc1ccc(Oc2ccc(C(=O)O)cn2)cc1` [Compound 073, 6-(4-pentylphenoxy)nicotinic acid], in experiment [1], the activity at 20 µM was in the range of 80 to 90%. In addition, the fold induction at 10 µM in experiment [2] lay in the range of 1.4 to 1.7.
In the case of `CC(C)c1ccc(Oc2ccc(C(=O)O)cn2)cc1` [Compound 075, 6-(4-isopropylphenoxy)nicotinic acid], the activity at 20 µM in experiment [1] was in the range of 80 to 90%. The fold induction at 10 µM in experiment [2] was in the range of 1.4 to 1.7.
Regarding `CCc1ccc(Oc2ccc(C(=O)OC)cn2)cc1` [Compound 092, methyl 6-(4-ethylphenoxy)nicotinate], the activity at 20 µM in experiment [1] lay within 80 to 90%. Also, the fold induction at 10 µM in experiment [2] lay in the range of 1.2 to 1.3.
For `Cc1ccc(Oc2ccc(C(=O)N(C)C)cc2)cc1` [Compound 215, N,N-dimethyl-4-(p-tolyloxy)benzamide] the same measures were 70 to 80% and 1.1 to 1.2.
Consider `CCc1ccc(Oc2ccc(C(=O)N(C)C)cc2)cc1` [Compound 216, 4-(4-ethylphenoxy)-N,N-dimethylbenzamide], for which, in experiment [1], the activity at 20 µM was in the range of 0 to 20%. Moreover, in experiment [2], the fold induction at 10 µM lay within 1.4 to 1.7.
Consider `CCCc1ccc(Oc2ccc(C(=O)N(C)C)cc2)cc1` [Compound 217, N,N-dimethyl-4-(4-propylphenoxy)benzamide], for which the activity at 20 µM in experiment [1] was 60 to 70%. Moreover, the fold induction at 10 µM in experiment [2] is 1.2 to 1.3.

Source of the values: patent publication US12600696B2 (XENIOPRO GMBH, priority 2017, dated 2026).
